In patent US4327213A, “Alpha-hydrocarbonoxyimino-pyrazineacetonitriles” (ACF Chemiefarma VA, priority 1977, dated 1982):
Where two headings read alike, the source gives them in different places.

Tests used:
[1] = system: indomethacin-induced gastric damage; assay: Inhibition of indomethacin-induced gastric damage in the rat (anti-ulcer activity, method of Elegbe); assay type: in vivo; conditions: po, 5 h, indomethacin 15 mg/kg s.c., compound 100 mg/kg orally, 30 min prior to and 2 h post indomethacin, read-out: Table 1 % Inhibition (mean inhibition of gastric damage)
Procedure: This was assessed by the inhibition of indomethacin-induced gastric damage in the rat according to the method of Elegbe (Israeli J. Med. Sci. (1974), 10, 1451).
Rats were starved overnight, given indomethacin subcutaneously (15 mg/kg) and sacrificed 5 hours later. Stomachs were inflated with 0.9% saline, cut along the greater curvature, pinned out and scored for gastric damage by the following system:
Score 1-3 according to the degree of erythema and slight haemorrhage.
Score 4-6 according to degree of mucosal erosion.
Score 7-9 according to depth of gastric damage.
Groups of 7 rats were used for each treatment level of compound, and a similar group receiving vehicle only was set up on each occasion of testing. Compound or vehicle was administered orally 30 minutes prior to, and at 2 hours post, dosing with indomethacin. Mean values per treatment were obtained using the above scoring system and the Mann Witney test applied for significance between such values. The mean inhibition of gastric damage from a number of experiments is shown in the following Table 1; the dosage being 100 mg/kg orally.

[2] = system: gastric secretion; assay: Effects on gastric secretion in the pyloric ligated rat (method of Shay et al.); assay type: in vivo; conditions: intraduodenal, 100 mg/kg i.d., sacrificed 3 hours later
Procedure: 2. Effects on Gastric Secretion, in the Pyloric Ligated Rat
The method described by Shay, et al. (Gastroenterol (1945) 26, 906) was used. After overnight starvation the pylorus of a rat was ligated under halothane anaesthesia, the Compound vehicle only administered intraduodenally and the rats allowed to recover. They were sacrificed 3 hours later and the gastric juice removed. After measurement of the volume of secretion, its hydrogen ion concentration, [H^+ ], was determined by titration with 0.05 N NaOH to pH 7. Groups of 4-6 animals were used for each treatment and the inhibitory effect of the Compound was ascertained by comparison of the mean values obtained with those from a simultaneously set up control group of animals which received vehicle only. Students `t` test was applied for significance between groups. The mean values for % inhibition obtained for a number of experiments are shown in the following Table 2, the dosage being 100 mg/kg i.d.

[3] = Acute toxicity in rats; conditions: rat, in vivo
Procedure: (§1) 5 (Z-isomer) up to 536 or 824 mg/kg in mice and rats respectively. The acute oral median lethal dose of compound no. 5 is 1268 mg/kg in male mice and 2311 mg/kg in male rats.

[4] = Acute toxicity in mice; conditions: mouse, in vivo
Procedure: as §1

[5] = system: gastric secretion; assay: Effects on gastric secretion in the pyloric ligated rat (method of Shay et al.); assay type: in vivo; conditions: intraduodenal, 50 mg/kg i.d., sacrificed 3 hours later
[6] = read-out: Table 2 % Inhibition Volume (volume of gastric secretion)
[7] = read-out: Table 2 % Inhibition [H^+ ] (hydrogen ion concentration)

In the case of `CO/N=C(/C#N)c1cnccn1` [5 (E-isomer), α-Methoxyiminopyrazineacetonitrile], the inhibition in vivo at 100 mg/kg [1] is reported as 96%.
Compound `CO/N=C(\C#N)c1cnccn1` [5 (Z-isomer), α-Methoxyiminopyrazineacetonitrile] has an inhibition in vivo at 100 mg/kg [2, 6] of 70%, an inhibition in vivo at 100 mg/kg [2, 7] of 73% and an inhibition in vivo at 100 mg/kg [1] of 94%. The NOAEL ([3]; rats, single doses, read-out: Single dose up to which no adverse effects were seen) was at least 824 mg/kg and the NOAEL ([4]; mice, single doses, read-out: Single dose up to which no adverse effects were seen) was at least 536 mg/kg.
In the case of `CON=C(C#N)c1ccccn1` [6 a], the inhibition in vivo at 100 mg/kg [2, 6] is reported as 62% and the inhibition in vivo at 100 mg/kg [1] is reported as 62%.
Compound `CON=C(C#N)c1cccc(Cl)n1` [6 aa] has an inhibition in vivo at 100 mg/kg [2, 6] of 35% and an inhibition in vivo at 100 mg/kg [2, 7] of 23%.
Compound `CCO/N=C(\C#N)c1cnccn1` [6 b] has an inhibition in vivo at 100 mg/kg [2, 6] of 66%, an inhibition in vivo at 100 mg/kg [2, 7] of 60% and an inhibition in vivo at 100 mg/kg [1] of 68%.
`CON=C(C#N)c1cccnc1` [6 bb] showed an inhibition in vivo at 100 mg/kg [1] of 72%.
`CC(C)O/N=C(\C#N)c1cnccn1` [6 c] gave an inhibition in vivo at 100 mg/kg [2, 6] of 52% and an inhibition in vivo at 100 mg/kg [1] of 43%.
Work on `CON=C(C#N)c1ccncc1` [6 cc] yielded an inhibition in vivo at 100 mg/kg [2, 6] of 80%, an inhibition in vivo at 100 mg/kg [2, 7] of 39% and an inhibition in vivo at 100 mg/kg [1] of 95%.
Compound `CCCCO/N=C(\C#N)c1cnccn1` [6 d] has an inhibition in vivo at 100 mg/kg [1] of 50%.
With `CON=C(C#N)c1cncnc1` [6 dd] the inhibition in vivo at 100 mg/kg [2, 6] was 35%, the inhibition in vivo at 100 mg/kg [2, 7] was 39% and the inhibition in vivo at 100 mg/kg [1] was 77%.
`N#C/C(=N\OC1CCCCC1)c1cnccn1` [6 e] showed an inhibition in vivo at 100 mg/kg [2, 6] of 62% and an inhibition in vivo at 100 mg/kg [2, 7] of 48%.
`CO/N=C(\C#N)c1ccc2ccccc2n1` [6 ee] showed an inhibition in vivo at 100 mg/kg [2, 6] of 28% and an inhibition in vivo at 100 mg/kg [1] of 84%.
`CO/N=C(\C#N)c1ccc2cc(C)ccc2n1` [6 ff] gave an inhibition in vivo at 100 mg/kg [1] of 42%.
For `CO/N=C(\C#N)c1ccc2ccc(C)cc2n1` [6 gg], the inhibition in vivo at 100 mg/kg [1] was 42%.
`CO/N=C(\C#N)c1ccnc2ccccc12` [6 ll] gave an inhibition in vivo at 100 mg/kg [2, 6] of 85%, an inhibition in vivo at 100 mg/kg [2, 7] of 23% and an inhibition in vivo at 100 mg/kg [1] of 85%.
For `CO/N=C(\C#N)c1nccc2ccccc12` [6 mm], the inhibition in vivo at 100 mg/kg [2, 6] was 28% and the inhibition in vivo at 100 mg/kg [1] was 42%.
`CO/N=C(\C#N)c1cnc2ccccc2n1` [6 nn] showed an inhibition in vivo at 100 mg/kg [2, 6] of 28% and an inhibition in vivo at 100 mg/kg [1] of 79%.
`CO/N=C(/C#N)c1cnc2ccccn12` [6 qq] showed an inhibition in vivo at 100 mg/kg [2, 6] of 77%, an inhibition in vivo at 100 mg/kg [2, 7] of 29% and an inhibition in vivo at 100 mg/kg [1] of 100%.
`CO/N=C(\C(N)=S)c1ccccn1` [8 (and 10), α-Methoxyimino-2-pyridinethioacetamide] showed an inhibition in vivo at 100 mg/kg [1] of 74%, an inhibition in vivo at 50 mg/kg [5, 6] of 32% and an inhibition in vivo at 50 mg/kg [5, 7] of 24%.
Work on `CO/N=C(\C(N)=O)c1ccccn1` [9 b] yielded an inhibition in vivo at 100 mg/kg [2, 6] of 26% and an inhibition in vivo at 100 mg/kg [1] of 56%.
Work on `CO/N=C(/C(N)=O)c1ccccn1` [9 c] yielded an inhibition in vivo at 100 mg/kg [2, 6] of 40% and an inhibition in vivo at 100 mg/kg [1] of 65%.
`CON=Cc1cnccn1` [12 (and 13), Pyrazine carboxaldehyde, O-methyl oxime] showed an inhibition in vivo at 100 mg/kg [2, 6] of 42% and an inhibition in vivo at 100 mg/kg [1] of 66%.
Compound `CO/N=C(\C#N)c1c[n+]([O-])ccn1` [14 a] has an inhibition in vivo at 100 mg/kg [2, 6] of 50%, an inhibition in vivo at 100 mg/kg [2, 7] of 34% and an inhibition in vivo at 100 mg/kg [1] of 91%.
`CON=C(C#N)c1cnccn1` [Compound 5, α-Methoxyiminopyrazineacetonitrile] showed an LD50 ([3]; male rats, oral, read-out: Acute oral median lethal dose) of 2310 mg/kg and an LD50 ([4]; male mice, oral, read-out: Acute oral median lethal dose) of 1270 mg/kg.
Compound `CON=C(c1ccccn1)C(F)(F)F` [Compound 7, 2-Pyridinyl trifluoromethyl ketone, O-methyl oxime] has an inhibition in vivo at 100 mg/kg [2, 6] of 74% and an inhibition in vivo at 100 mg/kg [2, 7] of 33%.
Compound `CO/N=C(\C#N)c1c[n+](C)ccn1` [Compound 15, α-Methoxyimino-2-pyrazineacetonitrile-4-methiodide] has an inhibition in vivo at 100 mg/kg [1] of 55%.
